Laboratory results reported in BindingDB's records for doi:10.1124/jpet.300.2.478 (Abbott Laboratories, 2002).

Assays:
[1] = target: T1, Alpha-1B adrenergic receptor (Homo sapiens, UniProt P35368)
T1 sequence (P35368 whole entry): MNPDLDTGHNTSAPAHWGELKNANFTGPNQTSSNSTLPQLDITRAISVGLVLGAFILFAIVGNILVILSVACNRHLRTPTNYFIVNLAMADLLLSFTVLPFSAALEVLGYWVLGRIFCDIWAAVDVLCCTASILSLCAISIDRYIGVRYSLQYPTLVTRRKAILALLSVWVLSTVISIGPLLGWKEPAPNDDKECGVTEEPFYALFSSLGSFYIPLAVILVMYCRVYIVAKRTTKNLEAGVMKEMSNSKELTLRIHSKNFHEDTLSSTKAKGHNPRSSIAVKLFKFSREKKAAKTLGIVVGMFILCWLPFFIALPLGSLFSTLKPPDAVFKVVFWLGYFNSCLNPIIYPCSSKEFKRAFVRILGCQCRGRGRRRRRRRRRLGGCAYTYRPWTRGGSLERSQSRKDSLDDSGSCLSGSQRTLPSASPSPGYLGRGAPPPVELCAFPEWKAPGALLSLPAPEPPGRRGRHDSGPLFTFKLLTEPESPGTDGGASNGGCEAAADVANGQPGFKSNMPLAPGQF

[2] = target: T2, Alpha-1D adrenergic receptor (Homo sapiens, UniProt P25100)
T2 sequence (P25100 whole entry): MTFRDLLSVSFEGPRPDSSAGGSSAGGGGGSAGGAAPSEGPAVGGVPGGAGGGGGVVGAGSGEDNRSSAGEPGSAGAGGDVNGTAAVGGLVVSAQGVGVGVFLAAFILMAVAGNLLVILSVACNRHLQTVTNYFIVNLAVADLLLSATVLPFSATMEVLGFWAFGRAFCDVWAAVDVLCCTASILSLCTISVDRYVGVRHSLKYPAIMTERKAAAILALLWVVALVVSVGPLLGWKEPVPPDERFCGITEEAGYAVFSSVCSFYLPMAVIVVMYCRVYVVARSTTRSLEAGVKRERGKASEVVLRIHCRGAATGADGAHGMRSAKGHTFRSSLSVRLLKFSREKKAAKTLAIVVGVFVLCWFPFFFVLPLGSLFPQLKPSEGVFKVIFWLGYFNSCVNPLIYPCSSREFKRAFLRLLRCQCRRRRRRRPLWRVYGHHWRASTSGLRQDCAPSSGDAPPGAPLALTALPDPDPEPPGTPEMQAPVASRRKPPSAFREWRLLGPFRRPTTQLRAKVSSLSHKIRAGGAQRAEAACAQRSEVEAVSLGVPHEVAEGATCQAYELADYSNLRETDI

Row | Ki [1] | Ki [2] | Compound
1 | 0.6 nM | 0.056 nM | CCOc1ccccc1OCCN[C@H](C)Cc1ccc(OC)c(S(N)(=O)=O)c1 [5-[(2R)-2-{[2-(2-ethoxyphenoxy)ethyl]amino}propyl]-2-methoxybenzenesulfonamide]
2 |  | 0.66 nM | COc1cc2nc(N3CCN(C(=O)C4CCCO4)CC3)nc(N)c2cc1OC (stereo not given) [6,7-dimethoxy-2-[4-(tetrahydrofuran-2-ylcarbonyl)piperazin-1-yl]quinazolin-4-amine]
3 | 25.1 nM | 0.91 nM | COc1cccc2c1C1CN(CCCCn3c(=O)[nH]c4c(sc5ncc(-c6ccccc6)nc54)c3=O)CC1CO2 (stereo not given) [CAS_172307]
